According to ChEMBL document CHEMBL4043199, “Synthesis and optimization of 4,5,6,7-tetrahydrooxazolo[4,5-c]pyridines as potent and orally-active metabotropic glutamate receptor 5 negative allosteric modulators” (Bioorg Med Chem Lett, 2017):
Converted amounts (≈) assume the structure as drawn.

Assays:
[1] = Metabolic stability in rat hepatic microsomes assessed as parent compound remaining at 1 uM after 30 mins in presence of NADPH by LC-MS/MS analysis relative to control; assay type: ADME, Microsome; settings: liver microsomes, read-out: Stability
[2] = Metabolic stability in human hepatic microsomes assessed as parent compound remaining at 1 uM after 30 mins in presence of NADPH by LC-MS/MS analysis relative to control; assay type: ADME, Microsome; settings: liver microsomes, read-out: Stability
[3] = biological target: Metabotropic glutamate receptor 5 (Homo sapiens, UniProt P41594); assay: Negative allosteric modulation of human recombinant mGluR5 expressed in HEK293 cells assessed as inhibition of glutamate-induced calcium mobilization preincubated for 2 mins followed glutamate addition measured by fluorescence assay; assay type: functional, cell-based
P-gp = assay: Substrate activity at P-gp (unknown origin) assessed as efflux ratio; assay type: ADME; settings: human, not told
[4] = […] of CYP450 in human liver microsomes as substrate after 10 mins by LC-MS/MS analysis; assay type: ADME
CYP2C8 = biological target: T1, CYP2C8 (Homo sapiens, UniProt P10632); assay: (§1) Inhibition of CYP2C8 in human liver microsomes using amodiaquine as substrate after 10 mins by LC-MS/MS analysis; assay type: ADME; settings: human, liver microsomes, probe amodiaquine
T1 sequence (P10632 whole entry): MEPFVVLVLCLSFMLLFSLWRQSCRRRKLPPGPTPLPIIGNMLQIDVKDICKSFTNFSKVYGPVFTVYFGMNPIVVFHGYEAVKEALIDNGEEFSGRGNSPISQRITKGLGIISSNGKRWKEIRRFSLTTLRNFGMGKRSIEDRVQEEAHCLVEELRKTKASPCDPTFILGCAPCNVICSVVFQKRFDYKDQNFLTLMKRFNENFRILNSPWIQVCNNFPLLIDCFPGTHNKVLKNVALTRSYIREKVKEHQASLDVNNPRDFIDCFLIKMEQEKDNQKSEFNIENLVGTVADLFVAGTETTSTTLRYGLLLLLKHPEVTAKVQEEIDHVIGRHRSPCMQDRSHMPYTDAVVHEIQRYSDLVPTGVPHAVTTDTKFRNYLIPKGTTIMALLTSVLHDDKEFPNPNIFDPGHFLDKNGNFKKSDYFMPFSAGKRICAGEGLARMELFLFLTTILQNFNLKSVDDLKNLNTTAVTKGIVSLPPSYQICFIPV

CYP3A4 = CYP3A4 (Homo sapiens, UniProt P08684); assay: (§2) Inhibition of CYP3A4 in human liver microsomes using midazolam as substrate after 10 mins by LC-MS/MS analysis; assay type: ADME; settings: human, liver microsomes, probe midazolam
CYP2C19 = CYP2C19 (Homo sapiens, UniProt P33261); assay: (§3) Inhibition of CYP2C19 in human liver microsomes using (S)-mephenytoin as substrate after 10 mins by LC-MS/MS analysis; assay type: ADME; settings: human, liver microsomes, probe (S)-mephenytoin
CYP2A6 = biological target: T2, CYP2A6 (Homo sapiens, UniProt P11509); assay: (§4) Inhibition of CYP2A6 in human liver microsomes using coumarin as substrate after 10 mins by LC-MS/MS analysis; assay type: ADME; settings: human, liver microsomes, probe coumarin
T2 sequence (P11509 whole entry): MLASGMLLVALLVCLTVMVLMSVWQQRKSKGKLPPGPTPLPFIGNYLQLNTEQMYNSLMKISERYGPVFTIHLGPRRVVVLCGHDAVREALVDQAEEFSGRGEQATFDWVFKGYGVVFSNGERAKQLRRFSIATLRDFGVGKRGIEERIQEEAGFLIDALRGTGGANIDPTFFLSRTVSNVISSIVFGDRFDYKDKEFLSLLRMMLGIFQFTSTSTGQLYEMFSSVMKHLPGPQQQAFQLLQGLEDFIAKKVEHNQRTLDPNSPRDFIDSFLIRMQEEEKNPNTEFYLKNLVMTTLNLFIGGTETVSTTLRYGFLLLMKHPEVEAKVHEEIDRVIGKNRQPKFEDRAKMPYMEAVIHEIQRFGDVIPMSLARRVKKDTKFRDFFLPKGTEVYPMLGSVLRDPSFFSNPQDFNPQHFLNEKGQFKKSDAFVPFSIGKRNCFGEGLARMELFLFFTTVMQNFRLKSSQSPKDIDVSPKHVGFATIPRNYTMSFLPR

CYP2D6 = CYP2D6 (Homo sapiens, UniProt P10635); assay: (§5) Inhibition of CYP2D6 in human liver microsomes using bufuralol as substrate after 10 mins by LC-MS/MS analysis; assay type: ADME; settings: human, liver microsomes, probe bufuralol
CYP2C9 = CYP2C9 (Homo sapiens, UniProt P11712); assay: (§6) Inhibition of CYP2C9 in human liver microsomes using diclofenac as substrate after 10 mins by LC-MS/MS analysis; assay type: ADME; settings: human, liver microsomes, probe diclofenac
CYP1A2 = biological target: T3, CYP1A2 (Homo sapiens, UniProt P05177); assay: (§7) Inhibition of CYP1A2 in human liver microsomes using phenacetin as substrate after 10 mins by LC-MS/MS analysis; assay type: ADME; settings: human, liver microsomes, probe phenacetin
T3 sequence (P05177 whole entry): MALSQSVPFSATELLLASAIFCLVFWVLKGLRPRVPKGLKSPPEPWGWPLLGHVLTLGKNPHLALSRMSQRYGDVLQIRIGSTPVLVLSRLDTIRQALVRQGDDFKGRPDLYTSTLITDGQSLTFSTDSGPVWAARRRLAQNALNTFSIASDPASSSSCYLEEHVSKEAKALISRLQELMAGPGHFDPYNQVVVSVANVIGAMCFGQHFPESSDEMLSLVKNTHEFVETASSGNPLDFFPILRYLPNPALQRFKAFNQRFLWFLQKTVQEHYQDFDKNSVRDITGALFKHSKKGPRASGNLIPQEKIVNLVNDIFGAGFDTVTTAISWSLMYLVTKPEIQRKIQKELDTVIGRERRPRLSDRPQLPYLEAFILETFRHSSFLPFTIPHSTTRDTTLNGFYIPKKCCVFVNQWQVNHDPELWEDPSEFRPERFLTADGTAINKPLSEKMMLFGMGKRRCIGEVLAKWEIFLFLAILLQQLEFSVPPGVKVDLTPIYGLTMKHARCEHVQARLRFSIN

[5] = Aqueous solubility of compound at pH 7.4; assay type: physicochemical; settings: aqueous medium
[6] = Oral bioavailability in rat at 10 mg/kg; assay type: ADME, organism-based; settings: in vivo
[7] = biological target: Voltage-gated inwardly rectifying potassium channel KCNH2 (Homo sapiens, UniProt Q12809); assay: Inhibition of human ERG
Rattus norvegicus [8] = assay: Ex vivo receptor occupancy at mGluR5 in Sprague-Dawley rat brain po administered daily for 4 days in presence of [3H]-MPEPy by liquid scintillation counting method; assay type: functional, organism-based
[9] = Oral bioavailability in monkey at 10 mg/kg; assay type: ADME, organism-based, Macaca mulatta; settings: rhesus monkey, in vivo
Cytochrome P450 2C8 = biological target: T4, Cytochrome P450 2C8 (Homo sapiens, UniProt P10632); assay: as §1; assay type: ADME
T4 sequence (P10632 whole entry): T1 sequence (P10632 whole entry)

[10] = Permeability of the compound at pH 7.4 by PAMPA; assay type: physicochemical; settings: read-out: permeability
Cytochrome P450 3A4 = Cytochrome P450 3A4 (Homo sapiens, UniProt P08684); assay: as §2; assay type: ADME
[11] = AUC in rat at 1 mg/kg, iv; assay type: ADME, organism-based; settings: in vivo
[12] = Clearance in rat at 1 mg/kg, iv after 24 hrs; assay type: ADME, organism-based; settings: in vivo
[13] = AUC in monkey at 10 mg/kg, po; assay type: ADME, organism-based, Macaca mulatta; settings: rhesus monkey, in vivo
Cytochrome P450 2C19 = Cytochrome P450 2C19 (Homo sapiens, UniProt P33261); assay: as §3; assay type: ADME
Cytochrome P450 2A6 = biological target: T5, Cytochrome P450 2A6 (Homo sapiens, UniProt P11509); assay: as §4; assay type: ADME
T5 sequence (P11509 whole entry): T2 sequence (P11509 whole entry)

[14] = AUC in rat at 10 mg/kg, po; assay type: ADME, organism-based; settings: in vivo
[15] = Volume of distribution at steady state in monkey at 0.5 mg/kg, iv after 24 hrs; assay type: ADME, organism-based, Macaca mulatta; settings: rhesus monkey, in vivo, read-out: Vdss
Rattus norvegicus [16] = assay: Ex vivo receptor occupancy at mGluR5 in Sprague-Dawley rat brain at 1 mg/kg, po administered daily for 4 days in presence of [3H]-MPEPy by liquid scintillation counting method relative to control; assay type: functional
[17] = Volume of distribution at steady state in rat at 1 mg/kg, iv after 24 hrs; assay type: ADME, organism-based; settings: in vivo, read-out: Vdss
[18] = AUC in monkey at 0.5 mg/kg, iv; assay type: ADME, organism-based, Macaca mulatta; settings: rhesus monkey, in vivo
[19] = Cmax in monkey at 10 mg/kg, po; assay type: ADME, organism-based, Macaca mulatta; set-up: dose 10 mg/kg, route oral; settings: rhesus monkey, in vivo
Salmonella typhimurium = assay: Genotoxicity in Salmonella typhimurium by Ames test; assay type: toxicity; settings: salmonella enterica subsp. enterica serovar typhimurium
[20] = Clearance in monkey at 0.5 mg/kg, iv after 24 hrs; assay type: ADME, organism-based, Macaca mulatta; settings: rhesus monkey, in vivo
Cytochrome P450 2D6 = Cytochrome P450 2D6 (Homo sapiens, UniProt P10635); assay: as §5; assay type: ADME
Cytochrome P450 2C9 = Cytochrome P450 2C9 (Homo sapiens, UniProt P11712); assay: as §6; assay type: ADME
[21] = Half life in rat at 1 mg/kg, iv; assay type: ADME, organism-based; settings: in vivo
Cytochrome P450 1A2 = biological target: T6, Cytochrome P450 1A2 (Homo sapiens, UniProt P05177); assay: as §7; assay type: ADME
T6 sequence (P05177 whole entry): T3 sequence (P05177 whole entry)

[22] = Cmax in rat at 10 mg/kg, po; assay type: ADME, organism-based; set-up: dose 10 mg/kg, route oral; settings: in vivo
[23] = Half life in monkey at 0.5 mg/kg, iv; assay type: ADME, organism-based, Macaca mulatta; settings: rhesus monkey, in vivo

Sequence of Metabotropic glutamate receptor 5 (P41594 whole entry): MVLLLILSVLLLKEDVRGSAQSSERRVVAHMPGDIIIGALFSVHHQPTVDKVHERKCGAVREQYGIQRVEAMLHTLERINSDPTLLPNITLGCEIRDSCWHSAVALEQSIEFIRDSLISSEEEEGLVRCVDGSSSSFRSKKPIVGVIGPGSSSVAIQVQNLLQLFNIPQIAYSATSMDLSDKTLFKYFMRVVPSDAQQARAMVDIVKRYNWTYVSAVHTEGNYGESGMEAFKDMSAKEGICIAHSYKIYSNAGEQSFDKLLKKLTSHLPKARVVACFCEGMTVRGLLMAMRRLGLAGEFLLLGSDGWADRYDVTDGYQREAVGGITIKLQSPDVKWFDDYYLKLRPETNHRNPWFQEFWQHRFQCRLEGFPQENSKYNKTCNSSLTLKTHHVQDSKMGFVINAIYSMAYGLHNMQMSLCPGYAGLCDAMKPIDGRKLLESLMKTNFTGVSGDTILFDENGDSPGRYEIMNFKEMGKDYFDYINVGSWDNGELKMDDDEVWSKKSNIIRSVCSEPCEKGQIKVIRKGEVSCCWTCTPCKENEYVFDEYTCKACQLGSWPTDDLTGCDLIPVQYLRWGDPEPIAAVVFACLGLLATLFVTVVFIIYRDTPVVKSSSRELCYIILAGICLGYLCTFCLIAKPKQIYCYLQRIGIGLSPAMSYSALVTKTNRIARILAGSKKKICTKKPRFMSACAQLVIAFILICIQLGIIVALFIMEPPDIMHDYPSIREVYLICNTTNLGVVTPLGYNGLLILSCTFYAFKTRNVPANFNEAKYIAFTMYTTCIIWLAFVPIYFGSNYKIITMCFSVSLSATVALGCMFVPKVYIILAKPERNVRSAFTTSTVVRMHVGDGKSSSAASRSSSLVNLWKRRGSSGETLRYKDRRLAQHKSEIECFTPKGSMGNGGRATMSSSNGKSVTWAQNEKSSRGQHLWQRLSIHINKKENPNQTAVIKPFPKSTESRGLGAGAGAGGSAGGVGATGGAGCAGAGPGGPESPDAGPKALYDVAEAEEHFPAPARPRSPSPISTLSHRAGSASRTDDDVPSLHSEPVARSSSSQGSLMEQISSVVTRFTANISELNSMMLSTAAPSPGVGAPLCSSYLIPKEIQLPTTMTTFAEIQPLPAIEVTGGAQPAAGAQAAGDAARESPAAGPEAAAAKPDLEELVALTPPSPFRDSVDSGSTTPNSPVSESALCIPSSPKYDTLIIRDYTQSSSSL
Sequence of CYP2D6 (P10635 whole entry): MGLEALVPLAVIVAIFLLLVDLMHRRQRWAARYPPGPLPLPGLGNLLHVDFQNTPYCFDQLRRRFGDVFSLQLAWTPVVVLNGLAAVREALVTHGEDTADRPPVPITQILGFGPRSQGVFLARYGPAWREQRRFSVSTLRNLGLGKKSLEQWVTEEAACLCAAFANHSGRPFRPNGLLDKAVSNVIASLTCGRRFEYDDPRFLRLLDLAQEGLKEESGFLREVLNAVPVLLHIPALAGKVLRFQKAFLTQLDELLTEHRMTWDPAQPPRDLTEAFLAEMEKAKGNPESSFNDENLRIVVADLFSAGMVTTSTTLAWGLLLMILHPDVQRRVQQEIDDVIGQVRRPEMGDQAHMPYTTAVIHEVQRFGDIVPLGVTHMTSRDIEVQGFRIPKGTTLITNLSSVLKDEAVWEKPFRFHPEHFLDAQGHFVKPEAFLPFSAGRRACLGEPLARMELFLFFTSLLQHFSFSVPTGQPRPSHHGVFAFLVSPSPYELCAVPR
Sequence of Cytochrome P450 2D6 (P10635 whole entry): as above
Sequence of CYP2C9 (P11712 whole entry): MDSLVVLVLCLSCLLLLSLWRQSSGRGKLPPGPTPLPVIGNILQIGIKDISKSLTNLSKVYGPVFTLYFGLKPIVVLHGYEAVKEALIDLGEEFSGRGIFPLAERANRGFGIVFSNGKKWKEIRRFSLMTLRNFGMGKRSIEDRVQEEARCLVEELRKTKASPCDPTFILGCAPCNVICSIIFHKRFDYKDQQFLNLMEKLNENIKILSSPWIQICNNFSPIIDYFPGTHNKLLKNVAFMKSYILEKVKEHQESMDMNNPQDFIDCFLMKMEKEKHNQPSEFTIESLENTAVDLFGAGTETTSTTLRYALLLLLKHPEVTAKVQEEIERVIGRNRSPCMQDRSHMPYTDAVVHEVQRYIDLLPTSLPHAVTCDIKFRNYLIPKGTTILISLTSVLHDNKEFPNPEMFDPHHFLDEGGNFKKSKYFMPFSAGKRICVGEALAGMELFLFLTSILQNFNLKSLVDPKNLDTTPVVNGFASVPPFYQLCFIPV
Sequence of Cytochrome P450 2C9 (P11712 whole entry): as above
Sequence of Voltage-gated inwardly rectifying potassium channel KCNH2 (Q12809 whole entry): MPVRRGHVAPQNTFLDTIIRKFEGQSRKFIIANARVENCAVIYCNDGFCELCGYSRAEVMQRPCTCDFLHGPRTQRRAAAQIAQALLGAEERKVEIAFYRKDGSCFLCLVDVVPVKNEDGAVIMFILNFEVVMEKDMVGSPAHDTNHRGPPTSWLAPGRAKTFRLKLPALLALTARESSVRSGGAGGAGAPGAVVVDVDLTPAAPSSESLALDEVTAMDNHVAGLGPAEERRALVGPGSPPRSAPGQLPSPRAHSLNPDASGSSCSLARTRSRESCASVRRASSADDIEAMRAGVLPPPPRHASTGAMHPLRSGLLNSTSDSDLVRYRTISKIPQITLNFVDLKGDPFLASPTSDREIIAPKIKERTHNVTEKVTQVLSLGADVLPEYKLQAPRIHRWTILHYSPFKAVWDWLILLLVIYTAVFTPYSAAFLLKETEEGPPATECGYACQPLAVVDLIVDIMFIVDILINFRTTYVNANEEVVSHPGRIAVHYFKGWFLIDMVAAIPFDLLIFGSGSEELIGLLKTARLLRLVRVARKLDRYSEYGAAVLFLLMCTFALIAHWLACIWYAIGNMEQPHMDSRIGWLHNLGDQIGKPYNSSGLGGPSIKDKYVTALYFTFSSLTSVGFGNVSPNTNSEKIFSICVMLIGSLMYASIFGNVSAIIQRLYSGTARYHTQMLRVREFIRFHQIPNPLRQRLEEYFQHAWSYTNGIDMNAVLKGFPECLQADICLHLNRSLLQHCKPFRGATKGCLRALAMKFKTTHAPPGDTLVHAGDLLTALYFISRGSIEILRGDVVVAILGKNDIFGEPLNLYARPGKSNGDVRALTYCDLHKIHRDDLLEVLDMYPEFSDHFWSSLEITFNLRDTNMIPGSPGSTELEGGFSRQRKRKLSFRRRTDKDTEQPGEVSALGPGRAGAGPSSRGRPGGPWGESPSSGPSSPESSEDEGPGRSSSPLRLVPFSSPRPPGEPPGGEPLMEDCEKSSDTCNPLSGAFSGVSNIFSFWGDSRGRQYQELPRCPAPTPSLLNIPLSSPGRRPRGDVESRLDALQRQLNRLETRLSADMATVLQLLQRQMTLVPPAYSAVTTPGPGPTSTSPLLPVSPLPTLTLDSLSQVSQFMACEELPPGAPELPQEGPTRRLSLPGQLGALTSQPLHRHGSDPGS
Sequence of CYP3A4 (P08684 whole entry): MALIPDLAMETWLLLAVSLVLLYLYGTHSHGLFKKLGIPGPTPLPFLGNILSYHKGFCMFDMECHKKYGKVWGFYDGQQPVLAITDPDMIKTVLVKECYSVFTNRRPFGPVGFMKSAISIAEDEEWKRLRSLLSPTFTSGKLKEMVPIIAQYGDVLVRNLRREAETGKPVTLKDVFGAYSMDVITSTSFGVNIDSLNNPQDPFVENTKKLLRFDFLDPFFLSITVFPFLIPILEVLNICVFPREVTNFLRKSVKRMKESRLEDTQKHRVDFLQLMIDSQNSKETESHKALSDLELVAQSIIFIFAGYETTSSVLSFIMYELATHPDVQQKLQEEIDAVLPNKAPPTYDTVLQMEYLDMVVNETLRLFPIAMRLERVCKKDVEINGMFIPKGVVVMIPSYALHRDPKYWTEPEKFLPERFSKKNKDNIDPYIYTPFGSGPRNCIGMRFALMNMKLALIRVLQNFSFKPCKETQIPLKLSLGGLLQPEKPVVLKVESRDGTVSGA
Sequence of Cytochrome P450 3A4 (P08684 whole entry): as above
Sequence of CYP2C19 (P33261 whole entry): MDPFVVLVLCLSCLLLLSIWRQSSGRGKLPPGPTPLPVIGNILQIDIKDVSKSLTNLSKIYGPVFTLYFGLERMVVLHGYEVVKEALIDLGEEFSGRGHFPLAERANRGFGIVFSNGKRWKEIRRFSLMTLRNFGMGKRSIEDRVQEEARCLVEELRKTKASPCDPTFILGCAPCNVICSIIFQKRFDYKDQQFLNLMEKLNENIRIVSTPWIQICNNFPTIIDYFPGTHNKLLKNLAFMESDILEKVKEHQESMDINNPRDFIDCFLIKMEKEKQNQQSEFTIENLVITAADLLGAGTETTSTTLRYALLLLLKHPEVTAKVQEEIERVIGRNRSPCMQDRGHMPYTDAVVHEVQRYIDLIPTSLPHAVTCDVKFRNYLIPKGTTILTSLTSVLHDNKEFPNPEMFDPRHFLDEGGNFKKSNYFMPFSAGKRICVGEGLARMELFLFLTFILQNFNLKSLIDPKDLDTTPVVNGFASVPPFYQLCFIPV

Compound: O=C(c1cccc(Cl)c1)N1CCc2oc(-c3ccc(F)cn3)nc2C1
- remaining at 0.5 h, 1 µM [1]: > 91%
- remaining at 0.5 h, 1 µM [2]: > 91%
- IC50 [3]: 0.05 µM

Compound: O=C(c1cc(F)cc(Cl)c1)N1CCn2nc(-c3ccc(F)cn3)cc2C1
- remaining at 0.5 h, 1 µM [1]: > 97%
- efflux ratio (P-gp): 1.2
- Activity [4]: Not Active
- IC50 at 10 min (CYP2C8): > 40 µM
- IC50 at 10 min (CYP3A4): > 40 µM
- remaining at 0.5 h, 1 µM [2]: > 97%
- IC50 at 10 min (CYP2C19): > 40 µM
- IC50 at 10 min (CYP2A6): > 40 µM
- IC50 at 10 min (CYP2D6): > 40 µM
- IC50 at 10 min (CYP2C9): > 40 µM
- IC50 at 10 min (CYP1A2): > 40 µM
- solubility [5]: 4 µg/mL (≈ 10.7 µM)

Compound: O=C(c1cc(F)cc(Cl)c1)N1CCc2oc(-c3ccc(F)cn3)nc2C1
- remaining at 0.5 h, 1 µM [1]: 91 to 97%
- efflux ratio (P-gp): 0.9
- bioavailability [6]: 80%
- IC50 [7]: 19 µM
- Activity (Rattus norvegicus [8]): Dose-dependent effect
- bioavailability [9]: 61%
- Activity [4]: Not Active
- IC50 (Cytochrome P450 2C8): > 50 µM
- Papp [10]: 37.1 ×10⁻⁶ cm/s
- IC50 (Cytochrome P450 3A4): > 50 µM
- remaining at 0.5 h, 1 µM [2]: 91 to 97%
- AUC [11]: 4340 ng·h/mL
- clearance [12]: 3.8 mL/min/kg
- AUC [13]: 62400 ng·h/mL
- IC50 (Cytochrome P450 2C19): > 50 µM
- IC50 (Cytochrome P450 2A6): > 50 µM
- AUC [14]: 34500 ng·h/mL
- Vd [15]: 2.1 L/kg
- Occ (Rattus norvegicus [16]): 48%
- Vd [17]: 2.4 L/kg
- AUC [18]: 5090 ng·h/mL
- Cmax [19]: 2880 ng/mL
- Activity (Salmonella typhimurium): Non-Toxic
- clearance [20]: 1.7 mL/min/kg
- IC50 (Cytochrome P450 2D6): > 50 µM
- IC50 (Cytochrome P450 2C9): > 50 µM
- IC50 [3]: 0.038 µM
- half-life [21]: 8.9 h
- IC50 (Cytochrome P450 1A2): > 50 µM
- Cmax [22]: 1730 ng/mL
- half-life [23]: 16.1 h
- solubility [5]: 6 µg/mL (≈ 16 µM)
